In PMC8714961, “Involvement of P-gp on Reversing Multidrug Resistance Effects of 23-Hydroxybetulinic Acid on Chemotherapeutic Agents” (Frontiers in Pharmacology, 2021):

Tests used:
P-gp [1] = target: T1, P-gp (Homo sapiens, UniProt P08183); assay: in vitro; details: dog, MDCK-MDR1
Method: (§7) Briefly, MDCK-MDR1 cells (1×10^5/Well) were seeded onto 0.4 mm pore-size transwell inserts (Millipore, MA, United States) in 24-well plates.

P-gp [2] = target: T1, P-gp; details: Control: digoxin 5 µM alone, MDCK-MDR1 monolayers
Method: as §7

P-gp [3] = target: T1, P-gp; assay: MDCK-MDR1 transport study, inhibition of VCR transport; details: dog, MDCK-MDR1
Method: Briefly, MDCK-MDR1 cells (1×10^5/Well) were seeded onto […] pore-size transwell inserts (Millipore, MA, United States) in 24-well plates.
(§1) The cells were rinsed with warmed Hank’s balanced salt solution (HBSS), and the inserts were incubated for 20 min at 37°C. […] Aliquots (50 µl) were taken from the receiver compartment at intervals of 30, 60, 90, and 120 min and replaced with fresh buffer. In the study, verapamil (VER), known P-gp inhibitor, was selected as positive control.
(§2) The apparent permeability values (Papp) were evaluated in all experiments according to the following equation: Papp=dQ/dt/AC0 (1) where A means the insert area and C0 represents the initial concentration. dQ/dt represents the slope of the cumulative content transported during the time course of the period studied.

MCF-7/S cells [4] = assay: Trypan blue exclusion assay, MCF-7/S cells; type: cell-based; details: 0.2, 2 and 20 µM with ADR 0.08 µM or VCR 0.5 µM, 48 h
Method: (§3) MCF-7 (human breast carcinoma cells) and MCF-7/ADR (P-gp-overexpressing derivative cells) cell lines were obtained from Blood Diseases Hospital, Chinese Academy of Medica ([Shi et al., 2011]). The cells were routinely maintained in RPMI 1640 with 10% heat-inactivated fetal bovine serum (FBS), 1% non-essential amino acid solution, 0.1 mg/ml streptomycin, and 100 units/ml penicillin. Caco-2 cells were purchased from American Type Culture Collection (ATCC, Rockville, MD, United States). Vector-MDCK and MDR1-MDCK cells were purchased from PharmaResources Co., Ltd. (China). Both Caco-2 and MDCK cells were maintained at Dulbecco’s modified Eagle’s medium (DMEM) with 10% FBS, 1% non-essential amino acid solution, 0.1 mg/ml streptomycin, and 100 units/ml penicillin. MCF-7/ADR cells were treated with […] and were cultured in ADR-free medium for more than 14 days before the experiment. All cells were cultured at 37°C in a humidified atmosphere of 5% CO2.
(§4) Trypan blue exclusion assay was used to measure the viability of cells to compounds. Briefly, MCF-7/sensitive (MCF-7/S) and MCF-7/ADR cells were diluted into the density of 0.5×10^4 cells/ml, then cells (1 ml) were seeded in culture plates. […]. The viable and dead cells (stained in blue) were counted by haemacytometer.

MCF-7/S cells [5] = assay: ADR/VCR accumulation study in MCF-7/S cells; details: ADR/VCR 5 µM, test compound 0.2, 2, 20 µM, 1 h
Method: MCF-7 cells (1×10^5/Well) were incubated in 24-well plates. […] After 1 h incubation, the compound solution was aspirated to stop further accumulation, and the monolayers were rinsed with cold Hank’s solution for three times. The drug content was detected by lysing the cells with ultrasound, and then the single well lysate was transferred to a plastic EP tube for further analysis. The protein concentration of the cells was measured using Coomassie brilliant blue.

P-gp [6] = assay: MDCK-MDR1 transport of BA/23-HBA with or without verapamil; details: dog
Method: (§5) Briefly, MDCK-MDR1 cells (1×10^5/Well) were seeded onto […] pore-size transwell inserts (Millipore, MA, United States) in 24-well plates. Cells were cultured for 5–7 days, when the transepithelial electrical resistance (TEER) values were 120–240 Ω cm^2.
as §1, §2
(§6) The efflux ratio (ER) was detected according to the ratio of Papp as the following equation: ER=Papp(B−A)/Papp(A−B) (2)

[7] = test system: MDCK-MDR1 cell monolayers; assay: as above; details: +VER (verapamil 20 µM) vs without VER
Method: as §5, §1, §2, §6

MCF-7/ADR cells [8] = assay: Hoechst assay (apoptosis); type: cell-based, human; details: 20 µM alone, vs control group
Method: MCF-7/ADR cells were collected and cultured at the density of 2.0 × 10^5/well in 24-well plates. […] The cells were dyed with Hoechst 33,342 (Beyotime, Shanghai, China) in the dark at 37°C for 30 min after washing with phosphate buffered saline (PBS). The morphological changes of the nucleus were evaluated by a fluorescence microscope.

MCF-7/ADR cells [9] = assay: Trypan blue exclusion assay, MCF-7/ADR cells; type: cell-based
Method: as §3, §4

[10] = MDCK-MDR1, with verapamil 20 µM

T1 sequence (P08183 whole entry): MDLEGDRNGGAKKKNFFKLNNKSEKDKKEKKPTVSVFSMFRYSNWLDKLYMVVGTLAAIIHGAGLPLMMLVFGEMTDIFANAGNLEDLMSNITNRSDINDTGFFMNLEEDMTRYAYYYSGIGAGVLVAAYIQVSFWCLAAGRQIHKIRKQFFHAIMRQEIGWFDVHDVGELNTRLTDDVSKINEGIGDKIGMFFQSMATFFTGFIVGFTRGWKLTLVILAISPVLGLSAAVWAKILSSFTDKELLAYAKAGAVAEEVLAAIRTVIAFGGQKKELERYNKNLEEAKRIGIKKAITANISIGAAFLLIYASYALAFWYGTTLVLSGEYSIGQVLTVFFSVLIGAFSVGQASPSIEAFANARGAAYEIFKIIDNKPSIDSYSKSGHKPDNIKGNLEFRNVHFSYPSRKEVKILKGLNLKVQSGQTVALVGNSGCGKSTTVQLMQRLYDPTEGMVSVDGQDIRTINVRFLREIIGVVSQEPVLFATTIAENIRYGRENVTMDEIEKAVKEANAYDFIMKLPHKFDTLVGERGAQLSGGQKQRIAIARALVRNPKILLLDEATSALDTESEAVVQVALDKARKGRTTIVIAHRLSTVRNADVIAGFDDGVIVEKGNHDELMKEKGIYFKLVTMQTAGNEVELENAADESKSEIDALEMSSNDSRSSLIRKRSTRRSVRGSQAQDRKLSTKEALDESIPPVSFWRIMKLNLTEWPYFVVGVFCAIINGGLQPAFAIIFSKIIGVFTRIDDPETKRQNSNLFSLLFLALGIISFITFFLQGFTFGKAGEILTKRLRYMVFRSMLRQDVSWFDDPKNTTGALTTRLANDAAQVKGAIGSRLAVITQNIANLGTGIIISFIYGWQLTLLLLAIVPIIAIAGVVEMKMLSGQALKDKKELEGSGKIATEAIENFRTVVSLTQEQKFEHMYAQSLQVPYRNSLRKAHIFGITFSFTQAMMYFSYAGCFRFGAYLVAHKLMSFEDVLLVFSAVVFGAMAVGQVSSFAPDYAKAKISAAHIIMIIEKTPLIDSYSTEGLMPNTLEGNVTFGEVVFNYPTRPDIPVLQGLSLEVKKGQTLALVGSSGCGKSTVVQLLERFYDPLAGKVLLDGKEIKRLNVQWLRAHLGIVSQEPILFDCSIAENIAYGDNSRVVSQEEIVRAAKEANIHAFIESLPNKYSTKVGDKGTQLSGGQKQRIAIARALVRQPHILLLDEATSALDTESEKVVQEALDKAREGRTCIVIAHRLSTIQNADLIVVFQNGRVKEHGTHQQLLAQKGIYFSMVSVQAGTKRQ

`C[C@H]1O[C@@H](O[C@H]2[C@@H](O)C[C@H](O[C@H]3[C@@H](O)C[C@H](O[C@H]4CC[C@@]5(C)[C@H](CC[C@@H]6[C@@H]5C[C@@H](O)[C@]5(C)[C@@H](C7=CC(=O)OC7)CC[C@]65O)C4)O[C@@H]3C)O[C@@H]2C)C[C@H](O)[C@@H]1O` [digoxin, reference compound] was tested, and the Papp A→B at 120 min, 5 µM (P-gp [1]) was 0.31 ± 0.05 ×10⁻⁶ cm/s and the “RE (net efflux) of digoxin” value (P-gp [2]) was 36.56.

In the case of `CC[C@]1(O)C[C@H]2CN(CCc3c([nH]c4ccccc34)[C@@](C(=O)OC)(c3cc4c(cc3OC)N(C=O)[C@H]3[C@@](O)(C(=O)OC)[C@H](OC(C)=O)[C@]5(CC)C=CCN6CC[C@]43[C@@H]65)C2)C1` [VCR, Vincristine, reference compound], the Papp A→B at 120 min (P-gp [3]) is reported as 0.35 ± 0.17 ×10⁻⁶ cm/s, the Papp B→A at 120 min (P-gp [3]) is reported as 3.86 ± 0.71 ×10⁻⁶ cm/s and the efflux ratio at 120 min (P-gp [3]) is reported as 10.9.

With `C=C(C)[C@@H]1CC[C@]2(C(=O)O)CC[C@]3(C)[C@H](CC[C@@H]4[C@@]5(C)CC[C@H](O)C(C)(C)[C@@H]5CC[C@]43C)[C@@H]12` [BA, Betulinic acid] the “Effect on cytotoxicity of MCF-7/S cells to ADR or VCR” value (MCF-7/S cells [4]) was “neither 23-HBA nor BA showed significant effects on cytotoxicity”, the “Accumulation of ADR/VCR in sensitive MCF-7 cells” value (MCF-7/S cells [5]) was “little impact was observed” and the Papp A→B at 120 min, 0.2 µM (P-gp [6]; MDCK-MDR1) was 61.2 ± 9.36 ×10⁻⁶ cm/s. For the same compound, the Papp A→B at 120 min, 2 µM (P-gp [6]; MDCK-MDR1) was 5.43 ± 0.5 ×10⁻⁶ cm/s, the Papp A→B at 120 min, 20 µM (P-gp [6]; MDCK-MDR1) was 0.72 ± 0.26 ×10⁻⁶ cm/s and the Papp B→A at 120 min, 0.2 µM (P-gp [6]; MDCK-MDR1) was 55.1 ± 9.8 ×10⁻⁶ cm/s. The Papp B→A at 120 min, 2 µM (P-gp [6]; MDCK-MDR1) was 6.51 ± 0.81 ×10⁻⁶ cm/s, the Papp B→A at 120 min, 20 µM (P-gp [6]; MDCK-MDR1) was 0.59 ± 0.14 ×10⁻⁶ cm/s and the Papp A→B at 120 min, 0.2 µM (P-gp [6]; [10]) was 105 ± 10.5 ×10⁻⁶ cm/s. The Papp A→B at 120 min, 2 µM (P-gp [6]; [10]) was 7.65 ± 1.53 ×10⁻⁶ cm/s, the Papp A→B at 120 min, 20 µM (P-gp [6]; [10]) was 0.26 ± 0.05 ×10⁻⁶ cm/s and the Papp B→A at 120 min, 0.2 µM (P-gp [6]; [10]) was 62.1 ± 4.71 ×10⁻⁶ cm/s. For the same compound, the Papp B→A at 120 min, 2 µM (P-gp [6]; [10]) was 6.9 ± 0.76 ×10⁻⁶ cm/s, the Papp B→A at 120 min, 20 µM (P-gp [6]; [10]) was 0.17 ± 0.05 ×10⁻⁶ cm/s and the “Folds (RE)” value ([7]; compound 0.2 µM) was 0.66. For the same compound, the “Folds (RE)” value ([7]; compound 2 µM) was 0.75, the “Folds (RE)” value ([7]; compound 20 µM) was 0.78 and the “Number of apoptosis cells, single agent” value (MCF-7/ADR cells [8]) was “not obviously different with the control group”. For the same compound, the “Cytotoxicity of combination exposure with ADR to MCF-7/ADR” value (MCF-7/ADR cells [9]; 0–20 µM with ADR 3 µM) was “not observed” and the “Cell toxicity as a single agent” value (MCF-7/ADR cells [9]; 0–20 µM, single agent) was “no cell toxicity was detected”.
